# Laboratory results as given in patent publication US7276337B2, “Compositions and methods for visual ribonuclease detection assays” (Integrated DNA Technologies, Inc., priority 2000, dated 2007).
# How the values were obtained:
# Ribonuclease A = molecular target: T1, Ribonuclease A (Bos taurus, UniProt P61823); test: Visual detection ribonuclease assay, cleavage of Substrate ODN by RNase A; type: biochemical, mammalian; parameters: key to Sensitivity of Substrate ODN to Ribonuclease A, relative signal intensity: +++ = maximum intensity; ++ = moderate intensity; + = faint but above background; − = negative (identical to background); settings: Substrate 500 nM; for Sensitivity of Substrate ODN to Ribonuclease A, relative signal intensity: visual inspection, UV excitation, 37° C. 60 minutes
# T1 sequence (P61823 27-150): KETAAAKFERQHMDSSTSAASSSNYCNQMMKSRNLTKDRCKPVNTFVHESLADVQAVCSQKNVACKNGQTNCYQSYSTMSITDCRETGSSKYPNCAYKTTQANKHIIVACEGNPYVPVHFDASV
# Description: Nuclease assays were conducted using the methods of the invention. SEQ ID NO:2 and SEQ ID NO:30 oligonucleotides were individually mixed in 1× Assay Buffer at a concentration of 500 nM (50 pmoles ODN in 100 ul volume) in thin-walled, UV transparent microtubes. RNase A (1 ul, diluted to 0;1 ug/ul) was added to the respective Assay Mixes. […] Assays were set up directly in microtubes as follows:
# Assay Mixes were incubated at room temperature for 10 minutes. Assays were visually examined for fluorescence emission directly in the assay tubes without further manipulation. Tubes were suspended above an ultraviolet light source, visually inspected, and photographed using a digital camera. […] The “positive” and “control” reactions appeared markedly different and were easily distinguished. […] The “positive” and “control” reactions were not markedly different to visual inspection.
# (§1) Nuclease assays were conducted using the method of the invention with both visual and fluorometric detection methods. Substrates were individually mixed in 1× Assay Buffer at a concentration of 50 nM (50 pmoles oligonucleotide in 1 ml volume) for fluorometric detection or at a concentration of 500 nM (50 pmoles of oligonucleotide in 100 ul volume) for visual detection. Test nucleases were added to respective Assay Mixes beginning at 1 ul stock reagent and proceeding with a 1:10 serial dilution until undetectable. Reaction mixes were incubated at 37° C. for 60 minutes. Fluorometric detection was performed as outlined in Example 2. Visual detection was performed as outlined in Example 1.
# (§2) Table 6: Sensitivity of different Substrate ODNs to Ribonuclease A. A series of Substrate ODNs were synthesized and tested for sensitivity to RNase A degradation. Stock enzyme was serial diluted to achieve final concentrations of 1 ng/ml, 100 pg/ml, and 10 pg/ml as indicated. Reactions were examined for fluorescence emission by visual inspection using an ultraviolet (UV) light source for excitation. Results were scored as +++, ++, +, or − based on relative signal intensity.
# (§3) It is commonly accepted that fluorometry provides for high sensitivity. To be useful, the visual method must also offer high sensitivity. Assays were conducted using the method of the invention with visual detection. Substrate SEQ ID NO:30 was mixed in 1× Assay Buffer at a concentration of 500 nM (50 pmoles ODN in 100 ul volume) in thin-walled, UV transparent tubes. […] Dilutions of stock RNase A, RNase 1, and RNase T1 were made in water. Undiluted and diluted nuclease (1 ul) was added to respective 100 ul Assay Mixes resulting in final dilution factors of 10^−2, 10^−3, 10^−4, 10^−5, 10^−6, and 10^−7. Assays were incubated at room temperature for 10 minutes and visually examined for fluorescence emission with UV excitation. […] The experiment took about 30 minutes to perform, including 15 minutes to set-up serial dilutions, 10 minutes incubation, and 5 minutes to visualize and photograph. Thus the method of the invention allows for a rapid, simple, and convenient visual assay for the presence of ribonuclease activity.
# Ribonuclease T1 = molecular target: T2, Ribonuclease T1 (Aspergillus oryzae, UniProt P00651); test: Visual detection ribonuclease assay, cleavage of Substrate ODN by RNase T1; type: biochemical; parameters: key to Sensitivity of Substrate ODN to Ribonuclease T1, relative signal intensity: +++ = maximum intensity; ++ = moderate intensity; + = faint but above background; − = negative (identical to background); settings: visual inspection, UV excitation, Substrate 500 nM, 37° C. 60 minutes
# T2 sequence (P00651 27-130): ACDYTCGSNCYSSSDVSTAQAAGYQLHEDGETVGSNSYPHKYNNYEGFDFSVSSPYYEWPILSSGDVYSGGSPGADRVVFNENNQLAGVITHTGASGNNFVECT
# Description: as §1
# as §2, with “Table 7:” for “Table 6:”, “Ribonuclease T1.” for “Ribonuclease A.”, “RNase T1” for “RNase A”, “of 0.001 units/ml, 0.0001 units/ml,” for “of 1 ng/ml, 100 pg/ml,”, “and 0.00001 units/ml” for “and 10 pg/ml”
# as §3
# RNase A = molecular target: T3, RNase A (Bos taurus, UniProt P61823); test: Fluorometric detection nuclease assay, RNase A; type: biochemical, mammalian; settings: RNase A 0.33 ug/ml; Substrate 50 nM; 37° C. 1 hour; 490 nm excitation
# T3 sequence (P61823 27-150): T1 sequence (P61823 27-150)
# Description: (§4) Nuclease assays were conducted using the method of the invention. SEQ ID NO:2 and SEQ ID NO:3 oligonucleotides were individually mixed in 1× Assay Buffer at a concentration of 50 nM (150 pmoles oligonucleotide in 3 mls volume). […] Assays were set up directly in cuvettes as follows:
# (§5) Assay Mixes were incubated at 37° C. for 1 hour. Fluorescence emission spectra were measured using a PTI fluorometer with 490 nm excitation. Substrate SEQ ID NO:2 (having chimeric RNA-DNA composition) reacted with both DNase I (undesired) and RNase A (desired).
# Nuclease assays were conducted using the method of the invention. The Substrate (SEQ ID NO:30) was mixed in 1× Assay Buffer at a concentration of 50 nM (150 pmoles oligonucleotide in 3 mls volume). Test nucleases were added to respective Assay Mixes, including 1 ul of RNase A (1 ug), 1 ul of RNase 1 (100 units), or 1 ul of RNase T1 (1000 units). […] Assays were set up directly in cuvettes as follows:
# Assay Mixes were incubated at 37° C. for 1 hour. Assays were transferred to cuvettes and fluorescence emission at 520 nm was measured using a PTI fluorometer with 490 nm excitation. Substrate SEQ ID NO:30, a preferred Substrate of the invention, reacted with (i.e., detected) all three RNase enzymes, verifying that Substrate compositions of the invention are sensitive to a variety of RNase enzymes.
# Substrate SEQ ID NO:30 was mixed in 1× Assay Buffer at a concentration of 50 nM (150 pmoles oligonucleotide in 3 mls volume). RNase A was added at final concentrations of 10 ng/ml, 2 ng/ml, 1 ng/ml, and 0.4 ng/ml. […] Assay mixes were incubated at 37° C. in a cuvette directly in a PTI fluorometer. Fluorescence emission at 520 nm with 490 nm excitation was measured over time. At high nuclease concentrations, the reaction goes rapidly to completion. At lower nuclease concentrations, the reaction rate decreases but with longer incubation times an easily detectable signal is generated. Substrate concentration is fixed and input enzyme (i.e., the test sample) varies. Since the background is stable (monitored in the control reaction), use of extended incubation periods will increase the sensitivity of the assay.
# Assays were conducted using the method of the invention with fluorometric detection. Substrate SEQ ID NO:30 was mixed in 1× Assay Buffer at a concentration of 50 nM (50 pmoles ODN in 1.0 ml volume) in RNase-free disposable cuvettes. […] Dilutions of stock RNase A, RNase 1, and RNase T1 were made in water. Undiluted and diluted nuclease (1 ul) was added to respective 1.0 ml Assay Mixes resulting in final dilution factors of 10^−3, 10^−4, 10^−5, 10^−6, 10^−7, 10^−8, and 10^−9. Assays were incubated at 37° C. for 1 hour and examined for fluorescence emission at 520 nm using 490 nm excitation in a PTI fluorometer. Final enzyme concentration reported notes the lowest concentration tested that was reproducibly positive with a signal:noise ratio of at least 2:1.
# DNase I = DNase I (Bos taurus, UniProt P00639); test: Fluorometric detection nuclease assay, DNase I (nuclease specificity); type: biochemical; settings: DNase I 2 units/ml; Substrate 50 nM; 37° C. 1 hour; 490 nm excitation
# Description: as §4, §5
# Sequence of DNase I (P00639 23-282): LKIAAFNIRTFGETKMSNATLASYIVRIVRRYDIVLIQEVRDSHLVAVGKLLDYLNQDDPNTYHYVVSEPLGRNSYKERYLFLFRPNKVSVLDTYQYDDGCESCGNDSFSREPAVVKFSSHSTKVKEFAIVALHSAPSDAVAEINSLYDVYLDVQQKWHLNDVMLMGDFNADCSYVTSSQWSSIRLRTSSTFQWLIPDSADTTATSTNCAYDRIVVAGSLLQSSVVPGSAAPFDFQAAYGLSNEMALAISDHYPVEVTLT
Substance,"Sensitivity of Substrate ODN to Ribonuclease A, relative signal intensity (Ribonuclease A; RNase A 10 pg/ml)","Sensitivity of Substrate ODN to Ribonuclease A, relative signal intensity (Ribonuclease A; RNase A 100 pg/ml)","Sensitivity of Substrate ODN to Ribonuclease A, relative signal intensity (Ribonuclease A; RNase A 1 ng/ml)","Sensitivity of Substrate ODN to Ribonuclease T1, relative signal intensity (Ribonuclease T1; RNase T1 10^−3 units/ml)","Sensitivity of Substrate ODN to Ribonuclease T1, relative signal intensity (Ribonuclease T1; RNase T1 10^−4 units/ml)","Sensitivity of Substrate ODN to Ribonuclease T1, relative signal intensity (Ribonuclease T1; RNase T1 10^−5 units/ml)",Reactivity with RNase A (fluorometer) (RNase A),Reactivity with DNase I (fluorescence emission spectra) (DNase I),"Fluorescence emission by visual inspection in the presence of RNase (Ribonuclease A; RNase A 1.0 ug/ml, room temperature 10 minutes, UV light source)","Fluorescence emission by visual inspection in the absence of RNase (control reaction) (Ribonuclease A; no nuclease, room temperature 10 minutes, UV light source)"
"5′ Fluorescein-AAuAA-Dabcyl 3′ (NAAUAAN; 5' fluorescein and 3' Dabcyl labels, nucleotide chemistry not given here) [SEQ ID NO:3]",−,+,++,−,−,−,retained reactivity,did not react,,
"5′ Fluorescein-AuAA-Tamra 3′ (NAUAAN; 5' fluorescein and 3' TAMRA labels, nucleotide chemistry not given here) [SEQ ID NO:2, reference compound]",,,,,,,reacted,reacted,changed somewhat in color and slightly increased in intensity,emitted light
